From PMC7607624 (Journal of nuclear medicine : official publication, Society …, 2013)

Tests used:
[1] = set-up: species or system human; conditions: in vivo
[2] = set-up: species or system human; conditions: in vivo; remark: listed apart in the source
[3] = set-up: species or system human; conditions: in vivo, iv
[4] = human, in vivo
[5] = set-up: species or system human; conditions: in vivo; remark: listed apart in the source

Substance: (18S,21S,24S,27S,30S)-27-(2-carboxyethyl)-21-(carboxymethyl)-30-((2S,3R,4R,5R,6S)-6-((2-(4-(3-[F18]fluoropropyl)-1H-1,2,3-triazol-1-yl)acetamido)methyl)-3,4,5-trihydroxytetrahydro-2H-pyran-2-carboxamido)-24-isopropyl-18-methyl-17,20,23,26,29-pentaoxo-4,7,10,13-tetraoxa-16,19,22,25,28-pentaazadotriacontane-1,32-dioic acid [18F-CP-18]
- Normalized number of disintegrations, Brain [1]: 0.0089±0.0038 MBq-h/MBq administered
- Normalized number of disintegrations, Breasts [1]: 0.015±0.0047 MBq-h/MBq administered
- Normalized number of disintegrations, Heart Contents [1]: 0.026±0.0036 MBq-h/MBq administered
- Normalized number of disintegrations, Kidneys [1]: 0.059±0.017 MBq-h/MBq administered
- Normalized number of disintegrations, Liver [1]: 0.064±0.024 MBq-h/MBq administered
- Normalized number of disintegrations, Remainder [1]: 0.82±0.14 MBq-h/MBq administered
- Normalized number of disintegrations, Spleen [1]: 0.0090±0.0024 MBq-h/MBq administered
- Normalized number of disintegrations, Testes [1]: 0.0057±0.0017 MBq-h/MBq administered
- Normalized number of disintegrations, Urinary Bladder Wall (1.0-hr) [1]: 0.29±0.033 MBq-h/MBq administered
- Normalized number of disintegrations, Urinary Bladder Wall (4.8-hr) [1]: 1.1±0.13 MBq-h/MBq administered
- parent tracer in urine [2]: 21%
- clearance half-time of activity from blood pool / plasma ([3]; human): ~ 30 minutes
- percentage of plasma-borne activity in the form of 18F-CP-18 [3]: 99%
- bladder uptake (percent administered activity) [4]: 16-27%
- crossing of the blood-brain barrier [4]: did not appreciably cross the blood-brain barrier
- kidney uptake (percent administered activity) [4]: 3.5-11%
- liver uptake (percent administered activity) [4]: 3.2-5.7%
- mean SUV, bladder [4]: approximately 65
- mean SUV, heart [4]: ~1.5
- mean SUV, kidneys [4]: ~6
- mean SUV, liver [4]: ~1.5
- renal system (kidneys and bladder together) uptake [4]: 22-31%
- Estimated organ dose per unit administered activity, Brain [5]: 2.4±0.6 μGy/MBq
- Estimated organ dose per unit administered activity, Breasts [5]: 7.7±3.6 μGy/MBq
- Estimated organ dose per unit administered activity, Heart Wall [5]: 10±0.8 μGy/MBq
- Estimated organ dose per unit administered activity, Kidneys [5]: 39±10 μGy/MBq
- Estimated organ dose per unit administered activity, Thymus [5]: 4.8±0.7 μGy/MBq
- Estimated organ dose per unit administered activity, Thyroid [5]: 4.2±0.7 μGy/MBq
- adult female phantom doses, higher than adult male phantom [5]: 20–34%
